Experimental data from ChEMBL document CHEMBL1201862, “PubChem BioAssay data set” (2004).
Calls of active or inactive are those of the source.

Legend:
[1] = ADAM10 inhibitors, peptide cleavage, dose response, biochemical, QFRET (AID 743254);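 further: ADAM10 enzyme with the DM2 quenched FRET peptide as substrate; EDANS fluorescence gain as the protease cuts the substrate; inhibitor potency against ADAM10 proteolytic activity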
[2] = C. albicans growth with fluconazole, confirmation, fluorescence, retest (AID 2467); type: functional, cell-based
[3] = NIH-3T3 fibroblast cytotoxicity, dose response, cytotoxicity control, cell-based, fluorescence, Alamar Blue, secondary assay (AID 2327); type: functional;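 further: NIH-3T3 mouse fibroblasts cultured with fluconazole at 8 µg/mL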
[4] = molecular target: Disintegrin and metalloproteinase domain-containing protein 17 (Homo sapiens, UniProt P78536); experiment: ADAM17 protease inhibitors, dose response, counter-screen for ADAM10 exosite inhibitor project, biochemical, quenched FRET substrate (AID 743253)
[5] = molecular target: Matrix metalloproteinase-14 (Homo sapiens, UniProt P50281); experiment: Dose Response confirmation of uHTS hits for a small molecule inhibitors of MT1-MMP activation in a fluorescence assay set 2.; type: functional
Nonstructural protein 1 = Nonstructural protein 1 (Influenza A virus, UniProt Q194T2); type: functional, Influenza A virus (A/California/07/2009(H1N1))
Nonstructural protein 1, sequence (Q194T2 whole entry, the tested form may be a part): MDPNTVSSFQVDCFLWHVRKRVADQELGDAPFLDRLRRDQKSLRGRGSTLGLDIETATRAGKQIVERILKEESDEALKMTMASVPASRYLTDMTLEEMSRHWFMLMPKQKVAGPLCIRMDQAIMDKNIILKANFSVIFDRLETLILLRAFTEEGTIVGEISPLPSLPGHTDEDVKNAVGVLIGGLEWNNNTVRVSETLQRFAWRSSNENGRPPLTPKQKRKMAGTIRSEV

[6] = molecular target: Arf-GAP with SH3 domain, ANK repeat and PH domain-containing protein 1 (Homo sapiens, UniProt Q9ULH1); type: functional;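 further: biochemical fluorescence polarization dose–response screen measuring inhibition of ASAP1; ASAP1 GAP domain stimulating GTP hydrolysis by truncated human ARF1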
Vero [7] = experiment: cells; type: functional; details: Chlorocebus sabaeus
Beta-galactosidase = Beta-galactosidase (Escherichia coli, UniProt Q8VNN2); experiment: Dose response counterscreen for EBI2 assay utilizing the enzyme, b-galactosidase.; type: functional
Beta-galactosidase, sequence (Q8VNN2 whole entry): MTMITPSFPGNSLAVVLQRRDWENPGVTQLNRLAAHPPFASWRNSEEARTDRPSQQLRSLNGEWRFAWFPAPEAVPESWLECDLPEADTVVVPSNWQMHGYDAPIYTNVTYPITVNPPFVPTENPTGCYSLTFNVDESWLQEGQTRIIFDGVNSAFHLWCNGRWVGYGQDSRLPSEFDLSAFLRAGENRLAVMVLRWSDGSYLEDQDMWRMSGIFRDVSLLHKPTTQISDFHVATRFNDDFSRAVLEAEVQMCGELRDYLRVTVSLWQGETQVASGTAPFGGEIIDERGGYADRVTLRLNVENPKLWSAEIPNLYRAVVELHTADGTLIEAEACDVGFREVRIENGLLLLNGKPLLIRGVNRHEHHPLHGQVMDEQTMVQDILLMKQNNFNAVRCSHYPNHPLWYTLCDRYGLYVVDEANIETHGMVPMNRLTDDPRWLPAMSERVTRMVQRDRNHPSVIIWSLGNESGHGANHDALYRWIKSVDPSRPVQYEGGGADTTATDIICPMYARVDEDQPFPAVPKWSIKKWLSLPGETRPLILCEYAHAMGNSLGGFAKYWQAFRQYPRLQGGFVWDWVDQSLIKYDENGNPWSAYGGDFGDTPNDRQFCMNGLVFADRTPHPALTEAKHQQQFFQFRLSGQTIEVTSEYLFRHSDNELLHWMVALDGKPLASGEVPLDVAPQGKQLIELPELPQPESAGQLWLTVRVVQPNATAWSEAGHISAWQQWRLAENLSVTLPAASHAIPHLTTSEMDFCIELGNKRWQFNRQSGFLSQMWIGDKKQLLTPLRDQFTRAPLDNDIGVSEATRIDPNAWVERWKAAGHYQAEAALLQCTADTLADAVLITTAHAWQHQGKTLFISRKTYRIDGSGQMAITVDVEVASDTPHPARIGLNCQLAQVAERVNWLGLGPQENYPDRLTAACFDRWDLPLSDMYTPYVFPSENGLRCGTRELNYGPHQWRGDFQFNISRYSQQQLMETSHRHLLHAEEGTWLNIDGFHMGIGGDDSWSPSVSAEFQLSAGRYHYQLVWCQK

[8] = molecular target: T1, Probable nicotinate-nucleotide adenylyltransferase (Staphylococcus aureus (strain N315), UniProt P65502); type: functional, Staphylococcus aureus subsp. aureus N315;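 on IC50 Mean: confirmatory dose-response retesting of NadD inhibitor hits first found in an ultra-high-throughput screen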
T1 sequence (P65502 whole entry): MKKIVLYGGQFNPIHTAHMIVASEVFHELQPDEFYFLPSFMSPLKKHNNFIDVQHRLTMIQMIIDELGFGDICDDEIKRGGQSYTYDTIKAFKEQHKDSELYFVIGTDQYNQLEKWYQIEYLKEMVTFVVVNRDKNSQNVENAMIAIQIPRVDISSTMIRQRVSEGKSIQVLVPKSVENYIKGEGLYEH

[9] = molecular target: T1, Probable nicotinate-nucleotide adenylyltransferase; type: functional, Staphylococcus aureus subsp. aureus N315; details: read-out: IC50_Mean
[10] = molecular target: T2, Tyrosine-protein phosphatase non-receptor type 22 (Homo sapiens, UniProt Q9Y2R2); experiment: PTPN22 phosphatase inhibition, dose response, selectivity assay for STEP inhibitor project, biochemical (AID 624241); type: functional
T2 sequence (Q9Y2R2 whole entry): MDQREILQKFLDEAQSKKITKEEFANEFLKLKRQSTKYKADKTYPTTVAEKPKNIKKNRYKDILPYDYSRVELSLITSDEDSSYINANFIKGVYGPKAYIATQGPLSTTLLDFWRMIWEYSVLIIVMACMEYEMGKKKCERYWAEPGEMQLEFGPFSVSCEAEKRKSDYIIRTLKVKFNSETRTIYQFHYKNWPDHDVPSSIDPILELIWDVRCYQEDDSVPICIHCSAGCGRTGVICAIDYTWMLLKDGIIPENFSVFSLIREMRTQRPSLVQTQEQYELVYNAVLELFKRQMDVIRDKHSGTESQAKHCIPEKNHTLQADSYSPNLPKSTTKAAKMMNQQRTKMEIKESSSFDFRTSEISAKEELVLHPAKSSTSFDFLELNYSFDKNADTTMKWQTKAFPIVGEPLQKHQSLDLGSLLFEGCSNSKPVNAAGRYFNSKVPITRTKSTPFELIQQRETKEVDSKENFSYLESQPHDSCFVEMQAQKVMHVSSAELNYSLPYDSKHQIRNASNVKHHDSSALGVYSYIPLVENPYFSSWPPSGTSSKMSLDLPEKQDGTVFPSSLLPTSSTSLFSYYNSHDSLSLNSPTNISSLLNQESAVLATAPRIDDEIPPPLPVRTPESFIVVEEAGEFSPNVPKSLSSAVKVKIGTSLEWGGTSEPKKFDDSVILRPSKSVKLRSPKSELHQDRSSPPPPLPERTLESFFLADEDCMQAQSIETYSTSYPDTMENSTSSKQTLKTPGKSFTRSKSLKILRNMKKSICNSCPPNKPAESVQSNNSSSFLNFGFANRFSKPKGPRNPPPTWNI

[11] = molecular target: T3, Carboxy-terminal domain RNA polymerase II polypeptide A small phosphatase 1 (Homo sapiens, UniProt Q9GZU7); experiment: inhibitors of CTDSP1, concentration-response testing, biochemical assay, absorbance-based, actives from ultra-high-throughput screening (AID 540297); type: functional
T3 sequence (Q9GZU7 whole entry): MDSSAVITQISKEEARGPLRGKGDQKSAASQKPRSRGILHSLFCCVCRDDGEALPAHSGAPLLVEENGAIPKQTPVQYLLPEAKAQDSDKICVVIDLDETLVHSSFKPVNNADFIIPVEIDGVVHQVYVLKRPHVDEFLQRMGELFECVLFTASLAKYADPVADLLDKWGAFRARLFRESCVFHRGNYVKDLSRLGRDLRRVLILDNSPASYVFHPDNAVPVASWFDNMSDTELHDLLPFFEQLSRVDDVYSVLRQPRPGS

[12] = molecular target: Eukaryotic translation initiation factor 4H (Homo sapiens, UniProt Q15056); experiment: human eIF4H binding inhibitors, primary screen, translation initiation inhibitor project, biochemical, uHTS, fluorescence polarization (AID 2012)
[13] = molecular target: Dual specificity protein phosphatase 3 (Homo sapiens, UniProt P51452); experiment: VHR phosphatase inhibition, dose response, selectivity assay for STEP inhibitor project, biochemical (AID 602374); type: functional; details: read-out: IC50_Mean
Dual specificity protein phosphatase 3, sequence (P51452 whole entry): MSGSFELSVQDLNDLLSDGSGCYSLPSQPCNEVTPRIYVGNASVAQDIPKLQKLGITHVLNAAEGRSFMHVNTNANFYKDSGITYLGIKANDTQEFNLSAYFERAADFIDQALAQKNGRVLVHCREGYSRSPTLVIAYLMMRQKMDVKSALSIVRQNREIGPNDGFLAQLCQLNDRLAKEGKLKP

[14] = molecular target: Tyrosine-protein phosphatase non-receptor type 11 (Homo sapiens, UniProt Q06124); experiment: SHP2 phosphatase inhibition, dose response, selectivity assay for STEP inhibitor project, biochemical (AID 602367); type: functional; details: read-out: IC50_Mean
Tyrosine-protein phosphatase non-receptor type 11, sequence (Q06124 whole entry): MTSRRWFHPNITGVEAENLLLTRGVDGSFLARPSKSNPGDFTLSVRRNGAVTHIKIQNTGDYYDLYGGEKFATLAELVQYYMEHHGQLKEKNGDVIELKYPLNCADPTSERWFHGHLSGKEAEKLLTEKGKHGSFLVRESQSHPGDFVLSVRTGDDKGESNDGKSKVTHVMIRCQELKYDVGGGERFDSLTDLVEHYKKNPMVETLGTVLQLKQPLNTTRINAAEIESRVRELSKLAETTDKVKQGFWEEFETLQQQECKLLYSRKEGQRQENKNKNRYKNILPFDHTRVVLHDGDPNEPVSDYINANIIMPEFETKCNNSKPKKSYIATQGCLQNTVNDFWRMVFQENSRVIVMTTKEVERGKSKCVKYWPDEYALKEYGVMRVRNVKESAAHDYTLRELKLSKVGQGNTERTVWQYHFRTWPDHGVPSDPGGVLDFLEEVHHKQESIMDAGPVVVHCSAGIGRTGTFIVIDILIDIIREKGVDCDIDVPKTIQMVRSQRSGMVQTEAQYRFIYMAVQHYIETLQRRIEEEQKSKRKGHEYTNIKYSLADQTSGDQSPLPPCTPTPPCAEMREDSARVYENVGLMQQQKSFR

Genome polyprotein = Genome polyprotein (dengue virus type 2, UniProt P29990); experiment: Dengue-2 NS5 methyltransferase inhibitors, primary screen, biochemical, confirmation dose response (AID 588689); type: functional
Genome polyprotein, sequence (P29990 2492-3391 limits assumed): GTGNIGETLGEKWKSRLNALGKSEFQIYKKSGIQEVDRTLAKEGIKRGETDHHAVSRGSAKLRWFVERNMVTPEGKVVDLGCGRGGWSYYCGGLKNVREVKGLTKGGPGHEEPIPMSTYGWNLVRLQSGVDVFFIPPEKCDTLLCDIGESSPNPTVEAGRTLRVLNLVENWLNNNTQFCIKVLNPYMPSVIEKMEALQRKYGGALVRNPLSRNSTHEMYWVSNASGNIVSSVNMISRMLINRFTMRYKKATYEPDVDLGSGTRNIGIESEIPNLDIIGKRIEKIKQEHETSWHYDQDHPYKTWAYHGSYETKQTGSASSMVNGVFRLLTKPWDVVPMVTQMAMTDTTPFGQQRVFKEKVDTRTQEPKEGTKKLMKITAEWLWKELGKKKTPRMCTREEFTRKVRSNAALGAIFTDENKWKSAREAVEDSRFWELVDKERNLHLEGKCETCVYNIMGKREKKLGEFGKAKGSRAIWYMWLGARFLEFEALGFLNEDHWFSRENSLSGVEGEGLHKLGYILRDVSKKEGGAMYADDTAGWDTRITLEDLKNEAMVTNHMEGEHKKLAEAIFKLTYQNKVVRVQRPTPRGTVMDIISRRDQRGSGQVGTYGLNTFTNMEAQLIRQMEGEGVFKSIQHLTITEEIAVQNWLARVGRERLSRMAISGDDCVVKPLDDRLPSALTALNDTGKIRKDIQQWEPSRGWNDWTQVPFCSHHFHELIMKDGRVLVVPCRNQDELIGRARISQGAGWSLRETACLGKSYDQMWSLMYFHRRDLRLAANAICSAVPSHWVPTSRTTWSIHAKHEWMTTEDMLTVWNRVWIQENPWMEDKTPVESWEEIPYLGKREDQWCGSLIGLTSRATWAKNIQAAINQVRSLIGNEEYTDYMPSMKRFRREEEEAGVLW

[15] = molecular target: Polyadenylate-binding protein 1 (Homo sapiens, UniProt P11940); experiment: PABP poly(A) RNA binding inhibitors, primary screen, biochemical, fluorescence polarization, uHTS (AID 2014)
[16] = molecular target: Tyrosine-protein phosphatase non-receptor type 5 (Homo sapiens, UniProt P54829); experiment: STEP phosphatase inhibitors, confirmation, biochemical, fluorescence intensity, uHTS hits (AID 602372); type: functional; details: read-out: IC50_Mean
Tyrosine-protein phosphatase non-receptor type 5, sequence (P54829 whole entry): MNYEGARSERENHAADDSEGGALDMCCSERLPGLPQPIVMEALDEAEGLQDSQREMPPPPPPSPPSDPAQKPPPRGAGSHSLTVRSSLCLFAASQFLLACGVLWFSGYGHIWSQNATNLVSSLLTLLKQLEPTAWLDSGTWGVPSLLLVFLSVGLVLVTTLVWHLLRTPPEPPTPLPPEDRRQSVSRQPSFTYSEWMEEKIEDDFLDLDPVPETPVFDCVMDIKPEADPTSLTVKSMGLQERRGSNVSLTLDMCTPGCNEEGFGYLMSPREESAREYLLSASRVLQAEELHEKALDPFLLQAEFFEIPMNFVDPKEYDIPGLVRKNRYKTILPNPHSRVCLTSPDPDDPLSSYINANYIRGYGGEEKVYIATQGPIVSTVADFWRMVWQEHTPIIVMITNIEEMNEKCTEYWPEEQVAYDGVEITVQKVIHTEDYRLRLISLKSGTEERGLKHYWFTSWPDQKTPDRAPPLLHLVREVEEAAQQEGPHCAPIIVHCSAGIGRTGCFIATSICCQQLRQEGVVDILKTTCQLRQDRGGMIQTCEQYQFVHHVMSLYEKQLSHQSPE

[17] = molecular target: Botulinum neurotoxin type F (Clostridium botulinum, UniProt P30996); experiment: High-throughput multiplex microsphere dose response for inhibitors of toxin protease, specifically Botulinum neurotoxin light chain F protease, compounds from Cherry Pick 02.; type: functional; details: read-out: EC50_MICROM
Botulinum neurotoxin type F, sequence (P30996 1-436 limits assumed): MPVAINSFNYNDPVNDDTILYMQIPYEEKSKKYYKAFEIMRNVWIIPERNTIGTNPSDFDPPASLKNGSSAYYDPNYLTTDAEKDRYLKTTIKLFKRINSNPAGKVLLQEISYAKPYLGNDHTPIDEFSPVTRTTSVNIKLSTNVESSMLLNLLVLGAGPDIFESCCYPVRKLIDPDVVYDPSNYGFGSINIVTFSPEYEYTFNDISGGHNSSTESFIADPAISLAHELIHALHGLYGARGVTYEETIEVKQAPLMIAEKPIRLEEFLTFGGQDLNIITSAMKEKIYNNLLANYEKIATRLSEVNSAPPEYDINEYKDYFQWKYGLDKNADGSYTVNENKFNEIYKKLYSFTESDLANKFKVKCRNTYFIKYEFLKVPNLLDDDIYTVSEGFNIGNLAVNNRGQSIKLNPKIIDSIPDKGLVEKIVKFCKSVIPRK

[18] = molecular target: T4, Long-chain-fatty-acid--AMP ligase FadD28 (Mycobacterium tuberculosis, UniProt P9WQ59); experiment: Fluorescence polarization aasay to screen for inhibitors that compete for the binding of FadD28 to a bisubstrate Measured in Biochemical System Using Plate Reader - 2147-01_Inhibitor_Dose_CherryPick_Activity.; type: functional, Mycobacterium tuberculosis H37Rv
T4 sequence (P9WQ59 whole entry): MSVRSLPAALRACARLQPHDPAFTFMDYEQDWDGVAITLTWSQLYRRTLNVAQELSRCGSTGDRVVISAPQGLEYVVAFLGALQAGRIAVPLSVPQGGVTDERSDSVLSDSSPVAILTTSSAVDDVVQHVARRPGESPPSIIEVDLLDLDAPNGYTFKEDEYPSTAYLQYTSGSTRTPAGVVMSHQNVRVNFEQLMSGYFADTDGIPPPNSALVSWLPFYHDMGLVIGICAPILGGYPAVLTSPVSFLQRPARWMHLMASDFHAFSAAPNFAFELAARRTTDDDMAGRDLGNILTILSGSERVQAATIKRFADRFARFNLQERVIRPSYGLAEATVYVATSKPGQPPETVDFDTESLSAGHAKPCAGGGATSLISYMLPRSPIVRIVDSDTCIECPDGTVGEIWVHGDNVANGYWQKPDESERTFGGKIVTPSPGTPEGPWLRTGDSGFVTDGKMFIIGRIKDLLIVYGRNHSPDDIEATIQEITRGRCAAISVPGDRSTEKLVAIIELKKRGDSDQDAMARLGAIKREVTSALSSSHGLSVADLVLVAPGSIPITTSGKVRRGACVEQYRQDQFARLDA

[19] = molecular target: Nuclear receptor subfamily 0 group B member 1 (Homo sapiens, UniProt P51843); type: functional, cell-based;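 further: HEK293T cells transfected with SF-1 and DAX-1 plus StAR promoter luciferase reporter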
Nuclear receptor subfamily 0 group B member 1, sequence (P51843 whole entry): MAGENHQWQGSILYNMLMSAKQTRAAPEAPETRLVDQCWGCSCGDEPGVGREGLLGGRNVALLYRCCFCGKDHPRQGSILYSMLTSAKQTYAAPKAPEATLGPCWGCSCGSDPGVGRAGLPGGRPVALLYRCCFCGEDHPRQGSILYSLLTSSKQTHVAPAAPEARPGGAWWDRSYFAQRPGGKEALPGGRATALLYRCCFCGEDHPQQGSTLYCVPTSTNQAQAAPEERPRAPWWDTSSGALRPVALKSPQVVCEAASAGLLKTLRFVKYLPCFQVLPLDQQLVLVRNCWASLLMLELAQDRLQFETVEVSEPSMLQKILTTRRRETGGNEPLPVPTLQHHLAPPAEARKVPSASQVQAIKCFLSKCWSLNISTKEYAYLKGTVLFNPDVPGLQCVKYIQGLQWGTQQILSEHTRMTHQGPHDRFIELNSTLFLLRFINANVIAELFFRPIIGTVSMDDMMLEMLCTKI

cells = type: functional, cell-based
[20] = MDA-MB-231 cell growth inhibition, dose response, cytotoxicity control for RAD54 inhibitor project, CellTiter-Glo luminescence, cherry-pick (AID 651692); type: functional, cell-based
[21] = molecular target: T5, DNA repair protein RAD52 homolog (Homo sapiens, UniProt P43351); type: functional, biochemical
T5 sequence (P43351 whole entry): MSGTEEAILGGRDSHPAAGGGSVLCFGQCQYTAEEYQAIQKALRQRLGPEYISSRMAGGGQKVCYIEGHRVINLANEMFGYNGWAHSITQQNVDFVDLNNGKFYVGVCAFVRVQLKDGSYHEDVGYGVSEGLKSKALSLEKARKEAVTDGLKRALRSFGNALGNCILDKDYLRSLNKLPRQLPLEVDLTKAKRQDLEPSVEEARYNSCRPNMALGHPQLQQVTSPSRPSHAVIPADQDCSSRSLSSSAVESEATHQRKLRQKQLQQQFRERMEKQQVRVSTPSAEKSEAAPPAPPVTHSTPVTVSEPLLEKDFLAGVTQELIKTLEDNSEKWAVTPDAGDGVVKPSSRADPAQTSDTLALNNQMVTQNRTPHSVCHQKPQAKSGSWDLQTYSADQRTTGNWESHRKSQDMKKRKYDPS

[22] = molecular target: T6, DNA repair and recombination protein RAD54-like (Homo sapiens, UniProt Q92698); experiment: inhibitors of human RAD54 branch migration, confirmation, biochemical, fluorescence, cherry-picked samples, dose series (AID 651657); type: functional
T6 sequence (Q92698 whole entry): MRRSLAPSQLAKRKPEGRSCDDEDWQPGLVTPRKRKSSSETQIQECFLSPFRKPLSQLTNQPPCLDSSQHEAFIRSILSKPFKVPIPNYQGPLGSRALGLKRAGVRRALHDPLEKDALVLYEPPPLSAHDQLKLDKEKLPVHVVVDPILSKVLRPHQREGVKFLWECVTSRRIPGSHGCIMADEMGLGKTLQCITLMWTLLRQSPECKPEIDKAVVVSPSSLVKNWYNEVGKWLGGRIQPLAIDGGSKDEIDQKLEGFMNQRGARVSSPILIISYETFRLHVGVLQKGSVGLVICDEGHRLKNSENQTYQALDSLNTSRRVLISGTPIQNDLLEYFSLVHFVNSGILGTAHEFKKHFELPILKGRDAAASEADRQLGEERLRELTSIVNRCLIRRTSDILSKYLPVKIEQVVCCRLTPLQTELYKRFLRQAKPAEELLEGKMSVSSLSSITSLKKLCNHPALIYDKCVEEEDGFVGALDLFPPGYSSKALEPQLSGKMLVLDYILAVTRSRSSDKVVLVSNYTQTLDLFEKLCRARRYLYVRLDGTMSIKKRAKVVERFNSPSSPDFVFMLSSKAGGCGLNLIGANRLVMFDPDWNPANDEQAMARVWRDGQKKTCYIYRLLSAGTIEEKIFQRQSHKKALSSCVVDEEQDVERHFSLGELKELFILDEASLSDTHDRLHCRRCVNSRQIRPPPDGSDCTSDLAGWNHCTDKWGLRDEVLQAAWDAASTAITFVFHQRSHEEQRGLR

Vero [23] = experiment: Vero cell toxicity, dose response, cytotoxicity control, plate reader, cherry-pick samples (AID 687020); type: functional, cell-based; details: Chlorocebus sabaeus
[24] = Counterscreen for activators of the function of SWI/SNF related, matrix associated, actin dependent regulator of chromatin, subfamily a, member 2 (SMARCA2, BRM): Luminescence-based cell-based high throughput dose response assay to identify non-selective compounds using the VP16 reporter assay.; type: functional
[25] = molecular target: SWI/SNF-related matrix-associated actin-dependent regulator of chromatin subfamily A member 2 (Homo sapiens, UniProt P51531); experiment: Luminescence-based cell-based high throughput dose response assay to identify activators of the function of SWI/SNF related, matrix associated, actin dependent regulator of chromatin, subfamily a, member 2 (SMARCA2, BRM).; type: functional
A549 = experiment: A549 cell toxicity, dose response, cytotoxicity control, plate reader, cherry-pick samples (AID 687028); type: functional, cell-based; details: Homo sapiens

Nc1nc(-c2ccccc2)c(N=Nc2ccccc2Cl)s1
IC50 [1]: 8.65 µM (active)
EC50 [2]: 4.78 µM (active)
EC50 [3]: > 160 µM (inactive)
IC50 [4]: > 69.5 µM (inactive)
IC50 [5]: 28 µM (inactive)
IC50 (Nonstructural protein 1): 9.93 µM (active)

COCCn1cnc2c(c1=O)c1nc3ccccc3nc1n2/N=C/c1ccc(OC)c(OC)c1
IC50 [6]: 41.7 µM (inactive)
CC50 (Vero [7]): 23.5 µM (active)

Cc1ccc2oc(C(=O)N3CCC(O)(c4ccccc4)CC3)c(C)c2c1
IC50 (Beta-galactosidase): > 80 µM (inactive)

O=C(NNS(=O)(=O)c1ccc2ccccc2c1)c1cc(-c2ccccn2)nc2ccccc12
IC50 [8]: 11.7 µM (active)
IC50 [9]: 28.9 µM (active)

COc1ccc(/C=N/NC2=NC(=O)C(CC(=O)O)S2)cc1OCc1ccc(Cl)cc1Cl (stereo not given)
IC50 [10]: 33.8 µM (inactive)
IC50 [11]: 4.48 µM (active)
IC50 [12]: 14.7 µM (active)
IC50 [13]: 4.79 µM (active)
IC50 [14]: 4.42 µM (active)
IC50 (Genome polyprotein): 59.4 µM (active)
IC50 [15]: 64.3 µM (active)
IC50 [16]: 9.72 µM (active)

Cc1nc2ccc(NC(=O)[C@@H](NC(=O)c3c(F)cccc3F)C(C)C)cc2s1
EC50 [17]: > 20 µM (inactive)

CCc1cccc2c(C(=O)CN3C(=O)N(C)C4(CCCCC4)C3=O)c[nH]c12
AC50 [18]: > 100 µM (inactive)
IC50 [19]: > 67.5 µM (inactive)
IC50 (cells): > 67.5 µM (inactive)

COc1ccc(OC)c2sc(N(CCN(C)C)C(=O)c3ccc4ccccc4c3)nc12
AC50 [20]: 32.7 µM (active)
AC50 [21]: 10.7 µM (active)
AC50 [22]: 58.4 µM (active)

CCNS(=O)(=O)c1ccc(Br)c(C(=O)OC(C)C(=O)NCC2CCCCC2)c1 (stereo not given)
AC50 (Vero [23]): 31.7 µM (active)

Cc1ccc2c(c1)cc(CN(Cc1ccco1)C(=O)N1CCOCC1)c1nnnn12
EC50 [24]: > 91.2 µM (inactive)
EC50 [25]: > 91.2 µM (inactive)

Cc1cccc(N=[N+]([O-])c2cccc(C)n2)n1
AC50 (A549): 34.5 µM (active)
